# From patent US9745629B2, “In vitro method for screening for candidate compounds for preventing and/or attenuating ageing of the skin, and/or for hydrating the skin” (CHANEL PARFUMS BEAUTE, priority 2011, dated 2017)
# Where “and” joins values, the source holds several entries; their conditions need not be identical. Identical values can stand only once.
# System: LARGE protein
# Experiment: Stimulation of the expression of LARGE protein in normal human keratinocytes (immunocytochemical staining)
# Format: cell-based
# Conditions: 48 hours, visual staining scale from 1 to 5, untreated keratinocytes 2.03, one donor
# Experimental: The effect of the Resveratrol used in Example 4 on the expression of the LARGE protein was evaluated in cultured keratinocytes. Keratinocytes derived from neonatal foreskin (Invitrogen, CA, USA) were cultivated in 6-well plates containing cover glasses coated with poly-L-ornithine (Sigma, MO) in keratinocyte culture medium with supplement (EpiLife, Invitrogen). After culturing for 24 hours at 37° C., the 40-50% confluent cells were washed with PBS buffer (Invitrogen, CA) and incubated with basal keratinocytes culture medium (EpiLife, Invitrogen) containing the extract to be tested, for 48 hours. The cytotoxicity of the extract was evaluated in human cultured keratinocytes before testing the activity. To quantify the expression of the LARGE protein in a treated sample relative to an untreated sample, immunocytochemical staining (ICC) of cover glasses with cultured keratinocytes was used. Staining was performed in triplicates, with primary goat anti-human LARGE antibodies (Santa Cruz, Calif.) and secondary donkey anti-goat antibodies (Rockland Immunochemicals, PA). The staining was visualized with AEC system (Lab Vision Corporation, CA). The extent of staining was assessed on thirty random images for each experimental condition, and a visual assessment of the staining was made using a scale from 1 to 5, with 1 being the least intense and 5 being the most intense. The significance of the difference between mean values was assessed using unpaired t test.
structure (smiles),measurement,setting,value
Oc1ccc(C=Cc2cc(O)cc(O)c2)cc1 [Resveratrol],Stimulation of LARGE protein,0.0005% (w/w),2.7 (±0.88) and 2.70
same,Stimulation of LARGE protein,0.001% (w/w),2.67 (±0.55) and 2.67
same,Stimulation of LARGE protein,0.002% (w/w),3.8 (±0.93) and 3.80
